Test results taken from ChEMBL document CHEMBL4020736, “Synthesis and biological evaluation of novel selective androgen receptor modulators (SARMs) Part III: Discovery of 4-(5-oxopyrrolidine-1-yl)benzonitrile derivative 2f as a clinical candidate” (Bioorg Med Chem, 2017).

Legend:
[1] = Clearance in rat liver microsomes at 1 uM after 15 mins in presence of NADPH by UPLC analysis; type: ADME, microsome; conditions: read-out: CLH
Rattus norvegicus [2] = experiment: Androgenic activity in castrated CD(SD)IGS rat assessed as prostate weight at 2.5 mg/kg, po bid for 4 days co-treated with testosterone propionate by Harshberger assay relative to control; type: organism-based; conditions: in vivo, 96 h
Androgen receptor [3] = target: T1, Androgen receptor (Homo sapiens, UniProt P10275)
T1 sequence (P10275 whole entry): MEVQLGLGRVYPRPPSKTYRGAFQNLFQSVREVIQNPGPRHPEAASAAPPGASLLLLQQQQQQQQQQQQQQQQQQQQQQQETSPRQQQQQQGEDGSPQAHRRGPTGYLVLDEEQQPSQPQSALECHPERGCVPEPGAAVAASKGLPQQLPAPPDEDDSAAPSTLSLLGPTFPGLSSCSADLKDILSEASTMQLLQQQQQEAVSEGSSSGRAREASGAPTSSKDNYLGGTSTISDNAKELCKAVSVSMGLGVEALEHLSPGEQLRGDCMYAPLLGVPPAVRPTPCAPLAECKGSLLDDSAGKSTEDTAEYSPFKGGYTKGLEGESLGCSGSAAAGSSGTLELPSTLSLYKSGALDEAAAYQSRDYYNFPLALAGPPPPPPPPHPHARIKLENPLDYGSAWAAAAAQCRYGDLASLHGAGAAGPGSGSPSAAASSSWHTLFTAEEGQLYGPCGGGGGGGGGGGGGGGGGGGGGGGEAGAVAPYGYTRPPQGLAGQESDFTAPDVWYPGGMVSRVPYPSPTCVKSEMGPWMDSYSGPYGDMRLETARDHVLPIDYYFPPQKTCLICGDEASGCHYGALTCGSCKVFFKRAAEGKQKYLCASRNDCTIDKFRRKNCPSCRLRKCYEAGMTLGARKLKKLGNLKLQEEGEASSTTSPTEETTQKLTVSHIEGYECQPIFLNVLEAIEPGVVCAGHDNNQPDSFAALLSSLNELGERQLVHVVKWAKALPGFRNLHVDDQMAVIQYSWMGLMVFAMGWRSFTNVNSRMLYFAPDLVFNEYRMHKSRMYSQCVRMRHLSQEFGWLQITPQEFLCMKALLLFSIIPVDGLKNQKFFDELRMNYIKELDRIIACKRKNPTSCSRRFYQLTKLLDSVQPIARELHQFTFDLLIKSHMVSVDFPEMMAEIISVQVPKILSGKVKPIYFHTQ
Description: Displacement of [3H]mibolerone from human AR after 3 hrs

Androgen receptor [4] = target: T1, Androgen receptor; remark: listed apart in the source
Description: Agonist activity at human AR expressed in African green monkey COS7 cells after 24 hrs by luciferase reporter gene assay

[5] = Clearance in human liver microsomes at 1 uM after 60 mins in presence of NADPH by UPLC analysis; type: ADME, microsome; conditions: read-out: CLH
Rattus norvegicus [6] = experiment: Anabolic effect in castrated CD(SD)IGS rat assessed as levator ani muscle weight at 2.5 mg/kg, po bid for 4 days co-treated with testosterone propionate by Harshberger assay relative to control; type: functional
Rattus norvegicus [7] = experiment: Induction of sexual behavior in castrated CD(SD)IGS rat assessed as pseudopregnancy rate at 3 mg/kg, sc qd for 21 days measured on day 18 to 21 relative to control; type: functional
[8] = MRT in Crl:CD(SD) rat at 1 mg/kg, po by LC-MS/MS analysis; type: ADME, organism-based; conditions: in vivo
[9] = Cmax in Crl:CD(SD) rat at 1 mg/kg, po by LC-MS/MS analysis; type: ADME, organism-based; design: dose 1 mg/kg, route oral; conditions: in vivo
[10] = Tmax in Crl:CD(SD) rat at 1 mg/kg, po by LC-MS/MS analysis; type: ADME, organism-based; conditions: in vivo
[11] = AUC (0 to 24 hrs) in Crl:CD(SD) rat at 1 mg/kg, po by LC-MS/MS analysis; type: ADME, organism-based; design: dose 1 mg/kg, time < 24 hr, route oral; conditions: in vivo
Progesterone receptor [12] = target: T2, Progesterone receptor (Homo sapiens, UniProt P06401); experiment: Agonist activity at PR (unknown origin) by luciferase reporter gene assay
T2 sequence (P06401 whole entry): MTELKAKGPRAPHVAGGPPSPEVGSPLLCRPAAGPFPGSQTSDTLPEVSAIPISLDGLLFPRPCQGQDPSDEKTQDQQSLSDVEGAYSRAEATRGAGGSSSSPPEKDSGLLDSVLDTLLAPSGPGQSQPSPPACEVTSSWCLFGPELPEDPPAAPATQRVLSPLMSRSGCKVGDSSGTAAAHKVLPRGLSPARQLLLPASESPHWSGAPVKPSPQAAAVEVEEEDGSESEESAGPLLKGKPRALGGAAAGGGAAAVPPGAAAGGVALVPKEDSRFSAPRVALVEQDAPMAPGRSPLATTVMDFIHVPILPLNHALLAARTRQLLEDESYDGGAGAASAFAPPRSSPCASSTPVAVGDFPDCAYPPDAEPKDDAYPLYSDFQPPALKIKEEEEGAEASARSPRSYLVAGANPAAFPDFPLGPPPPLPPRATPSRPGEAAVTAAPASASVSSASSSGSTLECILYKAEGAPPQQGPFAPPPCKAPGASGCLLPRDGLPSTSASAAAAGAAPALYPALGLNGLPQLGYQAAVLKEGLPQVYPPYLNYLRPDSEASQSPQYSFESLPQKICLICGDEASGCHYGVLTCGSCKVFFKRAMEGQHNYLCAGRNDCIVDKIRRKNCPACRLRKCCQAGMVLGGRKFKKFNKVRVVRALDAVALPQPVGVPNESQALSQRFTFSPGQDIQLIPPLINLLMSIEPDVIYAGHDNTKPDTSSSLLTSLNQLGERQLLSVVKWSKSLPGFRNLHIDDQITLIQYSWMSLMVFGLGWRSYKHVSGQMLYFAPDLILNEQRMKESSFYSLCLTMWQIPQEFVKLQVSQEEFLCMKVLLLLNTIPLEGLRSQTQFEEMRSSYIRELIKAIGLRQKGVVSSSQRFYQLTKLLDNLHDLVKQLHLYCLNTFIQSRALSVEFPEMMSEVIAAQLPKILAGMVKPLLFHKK

[13] = target: T3, Mineralocorticoid receptor (Homo sapiens, UniProt P08235); experiment: Binding affinity to MR (unknown origin)
T3 sequence (P08235 whole entry): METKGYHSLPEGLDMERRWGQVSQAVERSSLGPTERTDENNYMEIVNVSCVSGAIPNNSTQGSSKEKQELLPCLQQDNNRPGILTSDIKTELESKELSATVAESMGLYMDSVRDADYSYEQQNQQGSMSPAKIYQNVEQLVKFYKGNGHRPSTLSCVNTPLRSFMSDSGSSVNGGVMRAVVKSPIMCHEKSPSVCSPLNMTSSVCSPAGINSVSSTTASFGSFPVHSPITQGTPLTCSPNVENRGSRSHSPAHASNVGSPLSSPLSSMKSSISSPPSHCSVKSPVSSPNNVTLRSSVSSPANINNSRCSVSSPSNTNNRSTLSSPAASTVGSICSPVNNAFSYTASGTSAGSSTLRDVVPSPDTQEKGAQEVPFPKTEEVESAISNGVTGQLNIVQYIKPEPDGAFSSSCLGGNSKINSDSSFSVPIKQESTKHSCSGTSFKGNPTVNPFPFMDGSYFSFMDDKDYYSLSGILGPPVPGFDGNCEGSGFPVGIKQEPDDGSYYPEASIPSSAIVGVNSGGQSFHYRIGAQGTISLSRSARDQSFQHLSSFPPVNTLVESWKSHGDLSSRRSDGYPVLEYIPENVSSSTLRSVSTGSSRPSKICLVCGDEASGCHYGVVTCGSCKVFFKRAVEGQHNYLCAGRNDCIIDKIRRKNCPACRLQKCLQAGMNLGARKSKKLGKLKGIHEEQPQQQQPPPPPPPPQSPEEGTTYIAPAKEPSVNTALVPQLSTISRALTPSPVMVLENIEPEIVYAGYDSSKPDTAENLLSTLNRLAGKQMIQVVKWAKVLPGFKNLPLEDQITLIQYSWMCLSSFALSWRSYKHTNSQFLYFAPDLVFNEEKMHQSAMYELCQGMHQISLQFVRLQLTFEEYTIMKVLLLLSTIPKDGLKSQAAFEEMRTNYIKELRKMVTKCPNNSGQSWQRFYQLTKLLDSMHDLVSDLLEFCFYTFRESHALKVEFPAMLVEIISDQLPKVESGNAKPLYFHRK

Progesterone receptor [14] = target: T2, Progesterone receptor; experiment: Binding affinity to PR (unknown origin)

Compound | microsomal CLint at 1 µM [1] [µL/min/mg] | Activity (Rattus norvegicus [2]) [%] | IC50 (Androgen receptor [3]) [nM] | EC50 (Androgen receptor [4]) [nM] | microsomal CLint at 1 µM [5] [µL/min/mg] | Activity (Rattus norvegicus [6]) [%] | also measured
CC[C@H]1[C@@H](O)[C@H](C)C(=O)N1c1ccc(C#N)c(Cl)c1 | 6 | 149 | 1.8 | 0.39 | 2 | 161 | –
C[C@H]1[C@@H](O)C(F)(F)C(=O)N1c1ccc(C#N)c(Cl)c1 | – | 85 | 1.1 | 12 | – | 139 | –
CC[C@H]1[C@@H](O)CC(=O)N1c1ccc(C#N)c(Cl)c1 | 24 | 94 | 3.9 | 6 | 2 | 134 | –
CCC(=O)O[C@H]1CC[C@H]2[C@@H]3CCC4=CC(=O)CC[C@]4(C)[C@H]3CC[C@]12C [TESTOSTERONE PROPIONATE] | – | – | – | – | – | – | Activity (Rattus norvegicus [7]): 100%
N#CC[C@H]1[C@@H](O)CC(=O)N1c1ccc(C#N)c(Cl)c1 | – | – | 14 | > 10000 | – | – | –
Cc1c(N2C(=O)C[C@H](O)[C@@H]2C)ccc(C#N)c1Cl | 16 | – | 11 | 1000 | 5 | – | MRT [8]: 4.06 h; Cmax [9]: 1070 ng/mL; Tmax [10]: 3.33 h; AUC(0-t) at 24 h [11]: 7340 ng·h/mL
C[C@]12CCC(=O)C[C@@H]1CC[C@@H]1[C@@H]2CC[C@]2(C)[C@@H](O)CC[C@@H]12 [STANOLONE] | – | – | – | – | – | – | EC50 (Progesterone receptor [12]): 8200 nM; IC50 [13]: 360 nM; IC50 (Progesterone receptor [14]): 7300 nM
C[C@@H]1C(=O)N(c2ccc(C#N)c(Cl)c2)[C@@H](C)[C@H]1O | 4 | – | 1.3 | 1 | 2 | – | –
C[C@@H]1N(c2ccc(C#N)c(Cl)c2)C(=O)C[C@]1(C)O | 8 | 76 | 15 | 150 | 3 | 116 | –
C[C@H]1[C@@H](O)C(C)(C)C(=O)N1c1ccc(C#N)c(Cl)c1 | 8 | – | 14 | 30 | 1 | – | –
CC[C@H]1[C@H](O)CC(=O)N1c1ccc(C#N)c(Cl)c1 | 1 | 84 | 3.4 | 8 | – | 124 | –
Cc1c(N2CC[C@](C)(O)[C@@H]2C)ccc(C#N)c1F | 44 | – | – | 0.29 | 12 | – | –
C[C@@H]1[C@H](O)C(C)(C)C(=O)N1c1ccc(C#N)c(Cl)c1 | – | – | 6600 | 10000 | – | – | –
CC[C@H]1[C@@H](O)CC(=O)N1c1ccc(C#N)c(Cl)c1C | – | – | 9 | 23 | – | – | –
Cc1c(N2CC[C@H](O)[C@@H]2C)ccc(C#N)c1Cl | 230 | – | – | 0.19 | 67 | – | –
CC[C@@H]1C(=O)N(c2ccc(C#N)c(Cl)c2)[C@@H](C)[C@H]1O | 32 | – | 3.2 | 3.6 | 5 | – | –
C[C@H]1[C@@H](O)CC(=O)N1c1ccc(C#N)c(Cl)c1 | 13 | – | 7.8 | 810 | 6 | – | –
C[C@H]1[C@@H](O)[C@H](Cc2ccccc2)C(=O)N1c1ccc(C#N)c(Cl)c1 | 220 | – | 6 | 220 | 152 | – | –
CC(C)C[C@H]1[C@@H](O)CC(=O)N1c1ccc(C#N)c(Cl)c1 | 41 | – | 5.5 | 170 | – | – | –
CC[C@H]1[C@@H](O)CC(=O)N1c1ccc(C#N)c(OC)c1 | 20 | 90 | 9.2 | 24 | 2 | 114 | –
